Results from US20250255847A1, “[…]s: Novel Drugs for Triple Negative Breast Cancer” (SIMMARON RSEARCH INC, priority 2024, published 2025).

What was measured:
[1] = system: STAT3-dependent tumor-promoting genes; test: Gene array of 66 STAT3-dependent tumor-promoting genes in PDX tumors; assay type: in vivo, mouse; settings: tumor tissue; for number of the 66 STAT3-dependent genes strongly downregulated: out of 66 genes
Method: (§1) FIG. 15 illustrates an embodiment of the present invention and illustrates SIM 1 and 2 inhibited Y705P phosphorylation of STAT3 and the expressions of STAT3-dependent tumor supportive genes. (A) DAB immunostaining of Y705P STAT3 in tumor parenchyma of all three groups. (B) Quantitative analysis of Y705P STAT3-ir cells was performed by counting Y705P STAT3 cells in 15 different images, converting into a percent scale, and then plotting in a scatter histogram. On-way ANOVA followed by multiple comparison test indicated ****p<0.0001 versus control. (C) DAB immunostaining of S727P STAT3 followed by a (D) quantitative analysis of S727P STAT3-ir cells was performed in 15 different images and then plotted as a percent of total cells by a scatter histogram. On-way ANOVA represents no significance (NS) between groups. (E) Immunoblot analyses of Y705PSTAT3 (Rabbit […] antibody Cat #710093; Invitrogen), S727PSTAT3 (Mouse 1° antibody cat #MA5-15208; Invitrogen) followed by normalization with loading control β-actin (Mouse 1° antibody cat #MA1-744; Invitrogen). (F) A cDNA-based gene array of 66 STAT3-dependent tumor promoting genes were analyzed in TNBC tumors of vehicle-, SIM-1-, and SIM-2-treated mice. (G) A scatter plot summarized the gene array results. Based on the relative levels of expressions, gene levels were classified as low, moderate, and highly expressed. Results are confirmed after three different experiments.
(§2) These genes include anti-apoptotic genes such as bcl-2, survivin, and bcl-xl; cell cycle progression markers such as cyclin D1, akt, and p21.

[2] = target: T1, Y705P STAT3 and S727P STAT3 (Homo sapiens, UniProt P40763); test: IHC and immunoblot of phospho-STAT3 in PDX tumors; assay type: in vivo, mouse; settings: tumor tissue; for expression of Y705PSTAT3 (IHC): p<0.0001 versus vehicle
T1 construct: tissue Jackson Laboratories TM00096; host or cells: patient-derived TNBC tumour in NOD.Cg-Prkdcscid Il2rgtm1Wjl/SzJ mice
Method: as §1
Immunoblot assay. Immunoblot assay was performed as described before. Briefly, cell lysates were mixed with 5× Lamelli buffer, electrophoresed in 4-12% Tris-Glycine gel in tris-glycine SDS running buffer, transferred in a nitrocellulose membrane (P/N 926-31090; Li-Cor Biosciences, Lincoln, NE) in tris-glycine transfer buffer, incubated with appropriate primary antibodies overnight under shaking condition, labeled with IRDye700 and 800-tagged secondary antibodies for 2 hrs at room temperature in an orbital shaker, and then imaged in Odyssey Sa imager at 200 μm resolution.
Immunohistochemical (IHC) analyses. Tumor tissues were embedded in paraffin, cut at a thickness of 5 μm in Leica microtome, attached to a charged slide, dried in a dry bath at 37° C. for at least 48 hrs., and then progressed for IHC analysis. The IHC analysis was performed where, briefly, sections were deparaffinized by xylene and rehydrated by ethanol gradient (100%>70%>50%>20%; v/v) followed by complete rehydration by water. After that sections were blocked by Intercept® (TBS) Blocking Buffer (Licor Biosciences, Lincoln, NE) for 30 minutes, incubated with primary (1°) antibodies (Refer to Table 1) overnight at 4° C., washed with 1×TBST wash buffer for 3 times, incubated with biotinylated anti-mouse (1:200 dilution) or anti-rabbit (1:200 dilution) secondary (2°) antibodies (ThermoFisher), for 2 hrs., reacted with VECTASTAIN® Elite® ABC-HRP Kit, Peroxidase (Cat #PK-6100; Vector Laboratories) for 1 hr. as per manufacturer's recommendation, and finally stained with DAB chromogenic solution (Cat #SK-4100; Vector Laboratories).
This example provides a representative experiment that tested if SIM-1 and SIM-2 suppressed the activation of STAT3 in TNBC tumors. […] The result was further corroborated by the quantitative analysis (FIG. 15B), which indicated a significant downregulation of Y705PSTST3-ir cells (One-way ANOVA indicated ****p<0.0001 versus vehicle).
On the contrary, the expression of S727PSTAT3, another active isomer of STAT3, remained very low and unchanged across the treatment groups (FIG. 15C).
as §2

T1 sequence (P40763 2-770 Y705P/S727P limits assumed): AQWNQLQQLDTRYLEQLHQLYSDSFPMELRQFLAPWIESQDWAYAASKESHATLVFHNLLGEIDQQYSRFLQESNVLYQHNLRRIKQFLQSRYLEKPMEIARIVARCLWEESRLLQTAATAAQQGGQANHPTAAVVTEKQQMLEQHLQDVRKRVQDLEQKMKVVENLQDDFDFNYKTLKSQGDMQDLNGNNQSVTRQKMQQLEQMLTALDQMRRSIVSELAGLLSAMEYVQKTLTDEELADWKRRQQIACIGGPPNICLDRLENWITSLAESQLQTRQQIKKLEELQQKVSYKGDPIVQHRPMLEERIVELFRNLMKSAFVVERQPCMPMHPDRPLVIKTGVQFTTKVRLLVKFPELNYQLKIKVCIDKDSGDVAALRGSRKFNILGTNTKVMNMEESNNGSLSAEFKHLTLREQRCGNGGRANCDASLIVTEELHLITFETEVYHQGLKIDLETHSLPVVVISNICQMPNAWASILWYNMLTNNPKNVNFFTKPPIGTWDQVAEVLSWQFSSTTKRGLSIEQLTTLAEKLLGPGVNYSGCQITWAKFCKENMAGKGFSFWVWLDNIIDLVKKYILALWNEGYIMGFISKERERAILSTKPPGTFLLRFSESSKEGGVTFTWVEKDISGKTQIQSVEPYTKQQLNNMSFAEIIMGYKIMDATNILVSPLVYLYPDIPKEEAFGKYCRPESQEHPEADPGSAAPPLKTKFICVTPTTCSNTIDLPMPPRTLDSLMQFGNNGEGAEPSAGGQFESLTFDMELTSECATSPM

O=C(O)CCC(=O)NCc1csc2ccc(Cl)cc12 [SIM-1, 4-[(5-chloro-1-benzothiophen-3-yl)methylamino]-4-oxobutanoic acid]
number of the 66 STAT3-dependent genes strongly downregulated [1]: 55
tumor growth suppressor gene p53 expression [1]: significantly upregulated
S727P STAT3 expressions (IHC) [2]: did not show any change
Y705 phosphorylation of STAT3 (immunoblot) [2]: strongly and selectively suppressed
expression of Y705PSTAT3 (IHC) [2]: significantly suppressed

CCOC(=O)c1c(NC(C)=O)sc2c(Cl)c(/C=N/O)ccc12 [SIM-2, ethyl 2-acetamido-7-chloro-6-(hydroxyiminomethyl)-1-benzothiophene-3-carboxylate]
number of the 66 STAT3-dependent genes strongly downregulated [1]: 55
tumor growth suppressor gene p53 expression [1]: significantly upregulated
S727P STAT3 expressions (IHC) [2]: did not show any change
Y705 phosphorylation of STAT3 (immunoblot) [2]: strongly and selectively suppressed
expression of Y705PSTAT3 (IHC) [2]: completely ameliorated
